Data: patent US5686061A, “Particulate contrast media derived from non-ionic water soluble contrast agents for CT enhancement of hepatic tumors” (priority 1994, dated 1997)
Entries after “also recorded” stand apart in the source; their conditions may differ. Where two headings read alike, the source gives them in different places.

How the values were obtained:
[1] = background; cited from earlier work
Solubility of IX-C = type: physicochemical
[2] = Hydrolytic degradation of IX-C particles (HCl, NaOH, saline); type: physicochemical; conditions: supernatants of all samples (HCl, NaOH, saline, plasma)
Description: (§1) Degradation of IX-C particles was investigated by incubating a suspension of the particles (25 mg) in the following solutions (each 1 ml) at 37° C.:0.1 N HCl, 0.1 N NaOH, saline, and rabbit plasma. The disappearance of the particles in the suspensions was noted by visual observations and the integrity of the particles was examined by scanning electron microscopy. To identify the degradation products, the residual solutions were subjected to analysis by HPLC. The HPLC system consisted of a RP-18 column, a Perkin-Elmer isocratic LC pump (Model 250), a PE Nelson 900 series interface, a Spectra-Physics UV/Vis detector (Model SP 8540) and a data station. The eluant (10% methanol in double distilled water) was run at 0.8 ml/min. with UV detection at 254 nm. Samples in HCl or NaOH were neutralized before injection. Plasma samples were first treated with PCA (0.4 N) and centrifuged to remove precipitate proteins. The supernatants were then injected for HPLC analysis.

[3] = Enzymatic degradation of IX-C particles in rabbit plasma; type: in vitro ADME; conditions: plasma samples
Description: as §1

in vivo = conditions: mouse, in vivo, iv
Description: (§2) Swiss Webster mice (Harlan Sprague Dawley Inc., Indianapolis, Ind.) weighing between 25 and 30 g were given doses ranging from 0.2 to 1 ml/mouse. Five animals were used for each dose. No anesthesia was used for injection. Following the injection, animals were monitored daily for 7 days. The percentage survival vs. dose curve was constructed to estimate LD50.

Swiss Webster mice = assay: in vivo; conditions: male and female mice
Description: as §2

liver = assay: Computed tomography of liver in normal rabbits; type: in vivo, New Zealand white rabbits; conditions: predicted from CT imaging data
Description: New Zealand white rabbits (male, 3.0 to 3.5 kg) were anesthetized by an intramuscular injection of a solution containing xylazine (8.6 mg/ml), ketamine (42.9 mg/ml), and acepromazine (1.4 mg/ml) at a dose of 0.4 ml/kg for a long-lasting effect. Intravenous catheters (22-gauge) were placed in a marginal ear vein for the introduction of particle suspension. Rabbits were positioned supine in a GE model 9800 Quick scanner (Milwaukee, Wis.). The particulate contrast agent of proper volume (8% I, w/v in saline) was injected through the catheterized ear vein over a period of 10 to 15 minutes.
CT imaging of radiopaque particles (80 mg I/ml) was carried out at doses of 100, 200, and 270 mg I/kg body weight respectively. Three rabbits were used for each dose level. CT imaging was done with a scan speed of 1.0 seconds, 120 kV, 280 mAs, and a 25-cm field of view. Sequential, contiguous 3-mm-thick slices through the abdomen and 5-mm-thick-slices through the pelvis were obtained before contrast injection, immediately after injection and at various times (15 and 30 minutes, 1, 2, and 6 hours, and 1, 2, and 7 days after injection). The rabbits were killed with an overdose of pentobarbital sodium (50 mg/kg) administered via the catheterized ear vein.
Densitometric analysis of the liver, kidney, aorta, and bladder were performed. […]

endothelial cells = conditions: background; cited from earlier work

CC(=O)N(CC(O)CO)c1c(I)c(C(=O)NCCO)c(I)c(C(=O)NCC(O)CO)c1I (centres unmarked) [IOXILAN]
overall biological tolerance [1]: high overall biological tolerance

CC(=O)N(CC1COC(=O)O1)c1c(I)c(C(=O)NCC2COC(=O)O2)c(I)c(C(=O)N2CCOC2=O)c1I (centres unmarked) [IX-C, cyclic carbonate of IOXILAN]
lipid solubility (Solubility of IX-C): lipid soluble
solubility in acetone (Solubility of IX-C; acetone): soluble in acetone
solubility in methylene chloride (Solubility of IX-C; methylene chloride): limited solubility in methylene chloride; also recorded: slightly soluble in methylene chloride
solubility in water (Solubility of IX-C; water): insoluble in water
degradation products (HPLC) [2]: IOXILAN and carbon dioxide
degradation product confirmed by FAB mass spectroscopy [3]: presence of IOXILAN was confirmed
LD50 at 168 h (in vivo; female Swiss Webster mice, tail vein, 7 days, read-out: LD50, females, as iodine): 1200 mg/kg
LD50 at 168 h (in vivo; female Swiss Webster mice, corresponding IX-C dose, read-out: LD50, females, as IX-C): 2600 mg/kg
LD50 at 168 h (in vivo; male Swiss Webster mice, tail vein, 7 days, read-out: LD50, males, as iodine): 1400 mg/kg
LD50 at 168 h (in vivo; male Swiss Webster mice, corresponding IX-C dose, read-out: LD50, males, as IX-C): 3100 mg/kg
LD50 compared with those reported for other particulate CM (Swiss Webster mice): slightly higher than those reported for other particulate CM
predicted diagnostic dose (liver): 100 mg I/kg body weight

O=C(CCCCC(=O)Nc1c(I)cc(I)c(C(=O)O)c1I)Nc1c(I)cc(I)c(C(=O)O)c1I [Iodipamide, iodipamide]
toxicity to endothelial cells (endothelial cells): toxic to endothelial cells
